From patent US20240218022A1, “ANTI-VISTA MACROCYCLIC PEPTIDES AND COMPOSITIONS” (BRISTOL-MYERS SQUIBB COMPANY, priority 2022, published 2024)
Read-outs that look alike come from different tables or passages of the source. Starred links: 1 amine or outer side, 2 acyl side, 3 side chain; linkers in the order of their positions; H or OH if unused. Positions of bridges follow the written chain, without caps; N, C: chain ends. Non-standard residues stand in square brackets, D forms with d. Residues, ends and D or L forms follow the SMILES beside them. γGlu = O=C(O)[C@H](CCC(=O)[*:2])N[*:1]; Ahp(2) = CCCCC[C@H](N)C(=O)O; NMeNle = CCCC[C@H](NC)C(=O)O; NHexGly = CCCCCCNCC(=O)O; Nle = CCCC[C@H](N)C(=O)O; Orn = NCCC[C@H](N)C(=O)O; Aun = NCCCCCCCCCCC(=O)O; Dab = NCC[C@H](N)C(=O)O; Nva = CCC[C@H](N)C(=O)O; Abu = CC[C@H](N)C(=O)O; Dap = NC[C@H](N)C(=O)O

Target: T1, mouse VISTA (mVISTA) (Mus musculus, UniProt Q9D659)
T1 construct: expressed in transfected cells; host or cells: Human embryonic kidney 293T cells
T1 sequence (Q9D659 33-308): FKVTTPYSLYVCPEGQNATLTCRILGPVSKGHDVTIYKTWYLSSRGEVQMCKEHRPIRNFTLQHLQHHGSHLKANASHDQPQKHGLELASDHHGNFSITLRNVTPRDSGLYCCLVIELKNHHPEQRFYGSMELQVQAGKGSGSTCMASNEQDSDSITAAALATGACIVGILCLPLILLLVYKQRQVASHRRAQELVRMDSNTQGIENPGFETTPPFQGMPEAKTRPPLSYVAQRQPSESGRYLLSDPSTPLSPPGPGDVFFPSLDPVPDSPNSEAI
Test: Cell-Based Binding High-Content Assay For mVISTA (HC CBA mVISTA)
Settings: read-out: HC CBA mVISTA IC50
How it was run: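 Competition of compound with a biotinylated peptide (final 2 nM, 30 min at RT) for binding to mVISTA on 293T cells, run under no-wash or wash (1 h compound preincubation then removal) formats. Readout by Alexa 647–streptavidin imaging on a high-content platform; four-parameter logistic fit gave IC50.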

Row | IC50 | IC50 (293T cells expressing mouse VISTA, competition with biotinylated peptide (2 nM)) | Structure (SMILES)
1 | 19 nM | – | CCCCCCN1CC(=O)N[C@@H](Cc2ccc(O)cc2)C(=O)N[C@@H](CCCCC)C(=O)N[C@@H](CC(N)=O)C(=O)N[C@@H](CCCNC(=N)N)C(=O)N[C@@H](CC(C)C)C(=O)N[C@@H](CCCCC)C(=O)N2CCC[C@H]2C(=O)N[C@@H](C(C)C)C(=O)N[C@@H](CO)C(=O)N[C@H](C(=O)N[C@@H](CCC(=O)NCCCCCCCCCCC(=O)O)C(=O)O)CSCC(=O)N[C@@H](Cc2ccccc2)C(=O)N[C@@H](Cc2ccc(O)cc2)C(=O)N[C@@H](CC(=O)O)C1=O [Example 2340] ({CH2CO}-FYD[NHexGly]Y[Ahp(2)]NRL[Ahp(2)]PVSC[γGlu][Aun]-OH; thioether N-14)
2 | – | 58 nM | CCCCCCN1CC(=O)N[C@@H](Cc2ccc(O)cc2)C(=O)N[C@@H](CCCCC)C(=O)N[C@@H](CC(N)=O)C(=O)N[C@@H](CCCNC(=N)N)C(=O)N[C@@H](CC(C)C)C(=O)N[C@@H](CCCCC)C(=O)N2CCC[C@H]2C(=O)N[C@@H](C(C)C)C(=O)N[C@@H](CO)C(=O)N[C@H](C(=O)NCC(=O)N[C@@H](CCC(=O)O)C(=O)NCCCCCCCCCCC(=O)O)CSCC(=O)N[C@@H](Cc2ccccc2)C(=O)N[C@@H](Cc2ccc(O)cc2)C(=O)N[C@@H](CC(=O)O)C1=O [Example 2341] ({CH2CO}-FYD[NHexGly]Y[Ahp(2)]NRL[Ahp(2)]PVSCGE[Aun]-OH; thioether N-14)
3 | 29.9 nM | – | CCCCCCN1CC(=O)N[C@@H](Cc2ccc(O)cc2)C(=O)N[C@@H](CCCC)C(=O)N[C@@H](CC(=O)O)C(=O)N[C@@H](CCCNC(=N)N)C(=O)N[C@@H](CC(C)C)C(=O)N[C@@H](CCCCC)C(=O)N2CCC[C@H]2C(=O)N[C@@H](C(C)C)C(=O)N2CCC[C@H]2C(=O)N[C@H](C(=O)NCC(=O)O)CSCC(=O)N[C@@H](Cc2ccccc2)C(=O)N[C@@H](Cc2ccc(O)cc2)C(=O)N[C@@H](CC(=O)O)C1=O [compound 1118] ({CH2CO}-FYD[NHexGly]Y[Nle]DRL[Ahp(2)]PVPCG-OH; thioether N-14)
4 | 2.6 nM | – | CCCCCCN1CC(=O)N[C@@H](Cc2ccc(O)cc2)C(=O)N[C@@H](CCC)C(=O)N[C@@H](CC(N)=O)C(=O)N[C@@H](CCCNC(=N)N)C(=O)N[C@@H](CC(C)C)C(=O)N[C@@H](CCCCC)C(=O)N2CCC[C@H]2C(=O)N[C@@H](C(C)C)C(=O)N2CCC[C@H]2C(=O)N[C@H](C(=O)NCC(=O)O)CSCC(=O)N[C@@H](Cc2ccccc2)C(=O)N[C@@H](Cc2ccc(O)cc2)C(=O)N[C@@H](CC(=O)O)C1=O [compound 1120] ({CH2CO}-FYD[NHexGly]Y[Nva]NRL[Ahp(2)]PVPCG-OH; thioether N-14)
5 | 32.4 nM | – | CCCCCCN1CC(=O)N[C@@H](Cc2ccc(O)cc2)C(=O)N[C@@H](CCCC)C(=O)N[C@@H](CC(N)=O)C(=O)N[C@@H](CCCNC(=N)N)C(=O)N[C@@H](CC(C)C)C(=O)N[C@@H](CCCCC)C(=O)N2CCC[C@H]2C(=O)N[C@@H](C(C)C)C(=O)N2CCC[C@H]2C(=O)N[C@H](C(=O)NCC(=O)O)CSCC(=O)N[C@@H](Cc2ccccc2)C(=O)N[C@@H](Cc2ccc(O)cc2)C(=O)N[C@@H](CC(=O)O)C1=O [compound 1121] ({CH2CO}-FYD[NHexGly]Y[Nle]NRL[Ahp(2)]PVPCG-OH; thioether N-14)
6 | 37.6 nM | – | CCCCCCN1CC(=O)N[C@@H](Cc2ccc(O)cc2)C(=O)N[C@@H](C(C)C)C(=O)N[C@@H](CC(N)=O)C(=O)N[C@@H](CCCNC(=N)N)C(=O)N[C@@H](CC(C)C)C(=O)N[C@@H](CCCCC)C(=O)N2CCC[C@H]2C(=O)N[C@@H](C(C)C)C(=O)N2CCC[C@H]2C(=O)N[C@H](C(=O)NCC(=O)O)CSCC(=O)N[C@@H](Cc2ccccc2)C(=O)N[C@@H](Cc2ccc(O)cc2)C(=O)N[C@@H](CC(=O)O)C1=O [compound 1122] ({CH2CO}-FYD[NHexGly]YVNRL[Ahp(2)]PVPCG-OH; thioether N-14)
7 | 25.4 nM | – | CCCCCCN1CC(=O)N[C@@H](Cc2ccc(O)cc2)C(=O)N[C@@H](CC)C(=O)NCC(=O)N[C@@H](CCCNC(=N)N)C(=O)N[C@@H](CC(C)C)C(=O)N[C@@H](CCCCC)C(=O)N2CCC[C@H]2C(=O)N[C@@H](C(C)C)C(=O)N2CCC[C@H]2C(=O)N[C@H](C(=O)NCC(=O)O)CSCC(=O)N[C@@H](Cc2ccccc2)C(=O)N[C@@H](Cc2ccc(O)cc2)C(=O)N[C@@H](CC(=O)O)C1=O [compound 1123] ({CH2CO}-FYD[NHexGly]Y[Abu]GRL[Ahp(2)]PVPCG-OH; thioether N-14)
8 | 32.3 nM | – | CCCCCCN1CC(=O)N[C@@H](Cc2ccc(O)cc2)C(=O)N[C@@H](CC(C)C)C(=O)NCC(=O)N[C@@H](CCCNC(=N)N)C(=O)N[C@@H](CC(C)C)C(=O)N[C@@H](CCCCC)C(=O)N2CCC[C@H]2C(=O)N[C@@H](C(C)C)C(=O)N2CCC[C@H]2C(=O)N[C@H](C(=O)NCC(=O)O)CSCC(=O)N[C@@H](Cc2ccccc2)C(=O)N[C@@H](Cc2ccc(O)cc2)C(=O)N[C@@H](CC(=O)O)C1=O [compound 1124] ({CH2CO}-FYD[NHexGly]YLGRL[Ahp(2)]PVPCG-OH; thioether N-14)
9 | 33.5 nM | – | CCCCCCN1CC(=O)N[C@@H](Cc2ccc(O)cc2)C(=O)N[C@@H](CC(C)C)C(=O)NCC(=O)N[C@@H](CCCNC(=N)N)C(=O)N[C@@H](CC(C)C)C(=O)N[C@@H](CCCCC)C(=O)N2CCC[C@H]2C(=O)N[C@@H](C(C)C)C(=O)N2CCC[C@H]2C(=O)N[C@H](C(=O)NCC(N)=O)CSCC(=O)N[C@@H](Cc2ccccc2)C(=O)N[C@@H](Cc2ccc(O)cc2)C(=O)N[C@@H](CC(=O)O)C1=O [compound 1125] ({CH2CO}-FYD[NHexGly]YLGRL[Ahp(2)]PVPCG-NH2; thioether N-14)
10 | 15.7 nM | – | CCCCCCN1CC(=O)N[C@@H](Cc2ccc(O)cc2)C(=O)N[C@@H](CCCC)C(=O)N[C@@H](CC(N)=O)C(=O)N[C@@H](CCCNC(=N)N)C(=O)N(C)[C@@H](CCCC)C(=O)N[C@@H](CCCCC)C(=O)N2CCC[C@H]2C(=O)N[C@@H](C(C)C)C(=O)N[C@@H](CC(=O)O)C(=O)N[C@H](C(=O)N[C@@H](CCCCN)C(=O)N[C@@H](CC(N)=O)C(=O)O)CSCC(=O)N[C@@H](Cc2ccccc2)C(=O)N[C@@H](Cc2c[nH]c3ccccc23)C(=O)N[C@@H](CC(=O)O)C1=O [compound 1128] ({CH2CO}-FWD[NHexGly]Y[Nle]NR[NMeNle][Ahp(2)]PVDCKN-OH; thioether N-14)
11 | 13.4 nM | – | CCCCCCN1CC(=O)N[C@@H](Cc2ccc(O)cc2)C(=O)N[C@@H](CCCC)C(=O)N[C@@H](CC(N)=O)C(=O)N[C@@H](CCCNC(=N)N)C(=O)N(C)[C@@H](CCCC)C(=O)N[C@@H](CCCCC)C(=O)N2CCC[C@H]2C(=O)N[C@@H](C(C)C)C(=O)N[C@@H](CC(=O)O)C(=O)N[C@H](C(=O)N[C@@H](CCCN)C(=O)N[C@@H](CC(N)=O)C(=O)O)CSCC(=O)N[C@@H](Cc2ccccc2)C(=O)N[C@@H](Cc2c[nH]c3ccccc23)C(=O)N[C@@H](CC(=O)O)C1=O [compound 1129] ({CH2CO}-FWD[NHexGly]Y[Nle]NR[NMeNle][Ahp(2)]PVDC[Orn]N-OH; thioether N-14)
12 | 17.5 nM | – | CCCCCCN1CC(=O)N[C@@H](Cc2ccc(O)cc2)C(=O)N[C@@H](CCCC)C(=O)N[C@@H](CC(N)=O)C(=O)N[C@@H](CCCNC(=N)N)C(=O)N(C)[C@@H](CCCC)C(=O)N[C@@H](CCCCC)C(=O)N2CCC[C@H]2C(=O)N[C@@H](C(C)C)C(=O)N[C@@H](CC(=O)O)C(=O)N[C@H](C(=O)N[C@@H](CCCN)C(=O)N[C@@H](CCC(N)=O)C(=O)O)CSCC(=O)N[C@@H](Cc2ccccc2)C(=O)N[C@@H](Cc2c[nH]c3ccccc23)C(=O)N[C@@H](CC(=O)O)C1=O [compound 1130] ({CH2CO}-FWD[NHexGly]Y[Nle]NR[NMeNle][Ahp(2)]PVDC[Orn]Q-OH; thioether N-14)
13 | 23.1 nM | – | CCCCCCN1CC(=O)N[C@@H](Cc2ccc(O)cc2)C(=O)N[C@@H](CCCC)C(=O)N[C@@H](CC(N)=O)C(=O)N[C@@H](CCCNC(=N)N)C(=O)N(C)[C@@H](CCCC)C(=O)N[C@@H](CCCCC)C(=O)N2CCC[C@H]2C(=O)N[C@@H](C(C)C)C(=O)N[C@@H](CC(=O)O)C(=O)N[C@H](C(=O)N[C@@H](CCN)C(=O)N[C@@H](CC(N)=O)C(=O)O)CSCC(=O)N[C@@H](Cc2ccccc2)C(=O)N[C@@H](Cc2c[nH]c3ccccc23)C(=O)N[C@@H](CC(=O)O)C1=O [compound 1131] ({CH2CO}-FWD[NHexGly]Y[Nle]NR[NMeNle][Ahp(2)]PVDC[Dab]N-OH; thioether N-14)
14 | 36 nM | – | CCCCCCN1CC(=O)N[C@@H](Cc2ccc(O)cc2)C(=O)N[C@@H](CCCC)C(=O)N[C@@H](CC(N)=O)C(=O)N[C@@H](CCCNC(=N)N)C(=O)N(C)[C@@H](CCCC)C(=O)N[C@@H](CCCCC)C(=O)N2CCC[C@H]2C(=O)N[C@@H](C(C)C)C(=O)N[C@@H](CC(=O)O)C(=O)N[C@H](C(=O)N[C@@H](CCN)C(=O)N[C@@H](CCC(N)=O)C(=O)O)CSCC(=O)N[C@@H](Cc2ccccc2)C(=O)N[C@@H](Cc2c[nH]c3ccccc23)C(=O)N[C@@H](CC(=O)O)C1=O [compound 1132] ({CH2CO}-FWD[NHexGly]Y[Nle]NR[NMeNle][Ahp(2)]PVDC[Dab]Q-OH; thioether N-14)
15 | 11.5 nM | – | CCCCCCN1CC(=O)N[C@@H](Cc2ccc(O)cc2)C(=O)N[C@@H](CCCC)C(=O)N[C@@H](CC(N)=O)C(=O)N[C@@H](CCCNC(=N)N)C(=O)N(C)[C@@H](CCCC)C(=O)N[C@@H](CCCCC)C(=O)N2CCC[C@H]2C(=O)N[C@@H](C(C)C)C(=O)N[C@@H](CC(=O)O)C(=O)N[C@H](C(=O)N[C@@H](CN)C(=O)N[C@@H](CC(N)=O)C(=O)O)CSCC(=O)N[C@@H](Cc2ccccc2)C(=O)N[C@@H](Cc2c[nH]c3ccccc23)C(=O)N[C@@H](CC(=O)O)C1=O [compound 1133] ({CH2CO}-FWD[NHexGly]Y[Nle]NR[NMeNle][Ahp(2)]PVDC[Dap]N-OH; thioether N-14)
